Consider 2 compounds from patent US7709259B2, “Enhancement of mammalian embryo development” (Board of Regents of the University of Texas System, priority 2003, dated 2010).

Entries after “also recorded” stand apart in the source; their conditions may differ.

The subject of data set [1] is mouse embryos. As to the kind of experiment: Complete hatching of cultured two-cell mouse embryos. Type of data set: cell-based. Conditions: for effect on complete hatching: 0.1 μM. The protocol: Mice were kept under controlled temperature, humidity, and light cycle (12 hour light/dark cycle) conditions with free access to water and food. Three-week old C57B1/6 female mice were purchased from Harlan (Indianapolis, Ind., USA). Eight-week old C3H male mice were purchased initially from Harlan and later from The Jackson Laboratory (Bar Harbor, Me., USA). Superovulation in the female mice was achieved by intraperitoneal injection of pregnant mare serum gonadotropin (5 IU), followed by human chorionic gonadotropin (hCG, 5 IU) 46 hours later. After receiving hCG, each female mouse was paired with one fertile male mouse. Forty-eight hours later, two-cell embryos were harvested from the oviduct into α-MEM media supplemented with 25 mM HEPES and 1% BSA (Irvine Scientific).
Embryos (17-20 per group) were cultured at 37° C. under 5% CO2 in a four-well dish (Nalge Nunc International, Naperville, Ill., USA) containing 600 μl of medium in each well. The HTF and the α-MEM media were used sequentially during the 96-hour period to meet the changing nutritional requirements of the cleaving embryos [Gardner, 1998]. The HTF medium (SAGE Biopharma) was used during the first 48 hours, and the α-MEM medium (Irvine Scientific), with Earle's Salts and 2 mM glutamine, was used during the second 48 hours. The experimental embryos received Iloprost in water and the control embryos received an equal amount of water. […] After 96-hour culture, each embryo was examined for the presence of the zona pellucida. Embryos completely free of the zona pellucida were counted as having completely hatched. The rate of complete hatching was determined by dividing the number of completely hatched embryos by the total number of embryos. Complete hatching of embryos was chosen as an endpoint instead of blastocyst formation or embryo hatching because the latter two markers are not correlated with establishment of a viable pregnancy [Lane, 1997].
Student's t-test or one-way analysis of variance followed by Dunnett test were used where appropriate. A p<0.05 was considered statistically significant. Construction of dose response curves and calculation of ED50 values (with the Hill slope set at 1.0) were completed with the GraphPad Prism® software (GraphPad Prism Software Inc., San Diego, Calif., USA).

In data set [2] the test system is mouse embryos. The experiment in a line: Implantation rate 72 hours after transfer of cultured embryos to gestational carriers. The data set is classed as in vivo. The protocol: (§1) Mouse embryos were harvested and cultured as described above, and subsequently published by the present inventor (Huang et al., 2003). Briefly, two-cell embryos ([…]) were harvested from super-ovulated, three-week old C57B1/6 female mice 42 hours after hCG injection. The embryos (14 per group) were cultured at 37° C. under 5% CO2 in four-well dish (Nalge Nunc International, Naperville, Ill., USA) each containing 600 μl HTF media (SAGE Biopharma, Bedminster, N.J., USA). The experimental embryos received Iloprost (1 μM, Caymen Chemical, Ann Arbor, Mich., USA) in water and the control embryos, an equal amount of water. In either case, the volume of water was less than 0.1% of the culture media.
The day after the embryo donors received hCG, vaginal smears were obtained from potential gestational carriers (eight week old C3B6F1 female mice) to determine the stage of estrus cycle. […]
Seventy-two hours after embryo transfer, implantation was determined based on a previously described method with some modifications (Paria et al., 1993). […] Discrete blue bands (indicated by *) encircling the uterine horns were counted (FIG. 6A). […] The uterine horns were then opened and the gestation sacs counted (FIG. 6B). The implantation rate was expressed as the number of gestation sacs per embryo transferred. […]

Data set [3] concerns mouse embryos. As to the kind of experiment: Developmental stage of cultured embryos at the time of transfer. The data set is classed as cell-based. The procedure:
as §1
(§2) Embryo transfer was performed on 2.5 day of pseudopregnancy under a dissecting microscope (Olympus SZ-PT). Surgical anesthesia was obtained through intraperitoneal injection of ketamine (200 mg/Kg) and xylazine (10 mg/Kg) (both from Burns Vet Supply Inc. TX, USA). Each uterine horn was accessed via a 2-cm flank incision. With the proximal oviduct held by a pair of forceps, an opening was created at the distal end of the uterine horn on the anti-mesenteric side with a 30 gauge needle. The opening permits the entry of transfer pipette which has an inner diameter of 135 μm (MidAtlantic Diagnostics, Inc. NJ, USA). Up to seven embryos in 0.8 μl of transfer media (α MEM with 25 mM HEPES and 1% BSA) were transferred to each horn. After each transfer, contents of the pipette were examined under a stereo microscope to identify retained embryos. The flank incision was closed with 9 mm metallic clips (Clay Adams, Parsippany, N.J., USA). To avoid mixing of control and experimental embryos due to embryo migration from one horn to the other (personal communication with Dr. Andreas Zimmer, University of Bonn, Germany), each gestational carrier received either control or experimental embryos. To maintain consistent transfer techniques, the embryo transfer was performed according to the same protocol and by one individual, who was blinded to the treatment the embryos being placed received. To ensure that both groups benefited equally from the experience gained over the course of the study (˜6 months), the embryos were assigned treatments (control or Iloprost) in blocks of four.

Data set [4] deals with mouse embryos. The experiment in a line: Live birth rate, implantation rate and weights of pups and placentae 14 days after embryo transfer. Type of data set: in vivo. The procedure:
as §1
The day after the embryo donors received hCG, vaginal smears were obtained from potential gestational carriers (eight week old C3B6F1 female mice) to determine the stage of estrus cycle. Those in estrus were paired with vasectomized ICR males (Harlan) and checked for vaginal plugs on the following morning. Those with plugs were designated to be 0.5 day pseudopregnant.
as §2
In order to count and weigh the pups accurately, we sacrificed gestational carriers 14 days after embryo transfer (16.5 days of pregnancy or two days before natural birth). After euthanasia, the number of live pups was counted and the weight of individual pup and placenta was determined. All pups were examined for gross anomalies. The number of empty gestation sacs was also counted in order to determine the implantation rate. The live birth rate was expressed as the number of live pups per embryo transferred; the implantation rate was expressed as the number of sacs, with or without live pups, per embryo transferred.
The Fisher's exact test was used to compare the rates; the Student's t-test was used to compare the weights. A p<0.05 was considered as statistically significant. The GraphPad Instat® software (GraphPad Software Inc., San Diego, Calif., USA) was used for statistical analysis.

The test system of data set [5] is intact mouse embryos (blastocysts). As to the kind of experiment: Whole embryo radioligand binding assay (3H-Iloprost). Conditions: 0.1 μM 3H-Iloprost, with or without 5 μM unlabeled Iloprost, 116 blastocysts. The protocol: Analysis of the binding of ^3H-Iloprost to blastocysts was performed as previously described [Arbab, 2002] with slight modification. Two hundred thirty-two hatched and hatching blastocysts were washed three times in binding buffer (10 mM MnCl2 in 10 mM HEPES, pH 7.4) and then transferred to 100 μl of binding buffer with or without unlabeled Iloprost (5 μM). The reaction was started by adding an equal amount of binding buffer containing ^3H-Iloprost (200 nM, specific activity 11.0 Ci/mmol, Amersham Biosciences) and incubating for 60 min at room temperature. The reaction was terminated by transferring the blastocysts to 2 ml of ice-cold wash buffer (0.01% BSA in 10 mM HEPES, pH 7.4). The buffer and the blastocysts were filtered through glass fiber filters (Whatman GF/C 2.4 cm) and the filters were washed three times with 2 ml of wash buffer. The filters were dried in an oven before the radioactivity was determined by scintillation counting with 5 ml of scintillation fluid.

Another data set deals with rabbits. Particulars: Iloprost given throughout the gestation period; cited from earlier work.
In data set [6] the test system is human embryos (frozen zygotes). As to the kind of experiment: Blastocyst formation study with frozen human zygotes. The data set is classed as cell-based. Particulars: Frozen Zygote, 0.1 μM. The protocol: (§3) With the patients' written instructions, 101 frozen zygotes from 14 couples were used for the blastocyst formation study. The zygotes had been frozen during the period of January, 1993 to November, 2003. After overnight culture, only those embryos that had developed to 2-cell stage were used for further study. For each patient, those 2-cell stage embryos were split into a control pool or an experimental pool. All embryos were cultured in Gobal medium (a modified KSOM medium from IVF online) for 5 days with change medium at 2.5 day. The experimental group was supplemented with 0.1 μM of Iloprost (Cayman Chemical, Ann Arbor, Mich.). The control group was supplemented with vehicle (0.000001% DMSO). Chi-Square test were used to compare the number of blastocyst formed. The quality (size, inner cell mass, trophectoderm) of blastocysts was analyzed by non-parametric Wilcoxon Rank Sum Test. The statistical significance was defined at P<0.05. Another 52 donated frozen blastocysts, from 9 couples, were used for short term study. Forty-five thawed blastocysts were recovered. Those blastocysts were immediately cultured with or without Iloprost. The re-expansion of blastocoel was checked 18 hours later. The analysis of outcome was the same as the analysis for the frozen zygotes study.

The next data set relates to rats. Particulars: Iloprost given throughout the gestation period; cited from earlier work.
A further data set deals with human frozen blastocysts. The experiment in a line: Short term study with thawed frozen human blastocysts. Type of data set: cell-based. The protocol:
as §3

A further data set deals with monkeys. Conditions: Iloprost given throughout the gestation period; cited from earlier work.
[7] abbreviates: 1 μM in HTF media, 81 embryos transferred.

As for `CCCCC[C@H](O)/C=C/[C@H]1[C@H](O)CC(=O)[C@@H]1C/C=C\CCCC(=O)O` [PGE2, prostaglandin E2], the “effect on complete hatching of cultured mouse embryos” value in the data set on mouse embryos [1] (preliminary data) is “enhanced the complete hatching”.

For the compound `CC#CCC(C)[C@H](O)/C=C/[C@@H]1[C@H]2C/C(=C/CCCC(=O)O)C[C@H]2C[C@H]1O` (stereo partly shown) [Iloprost], the “Number of gestation sacs” value with mouse embryos [2] (72 hours after transfer of 81 embryos cultured with 1 μM, control 35) turned out to be 62. Further, the “implantation rate (gestation sacs per embryo transferred)” value in the data set with mouse embryos [2] (72 hours after transfer, control 42%) was found to be 76%. In addition, the “Degenerated (number of embryos at transfer)” value in the data set on mouse embryos [3] (setting [7]) turned out to be 0. Moreover, the “Hatching Blastocyst (number of embryos at transfer)” value in the data set with mouse embryos [3] (setting [7]) is 2. Moreover, the “Morula (number of embryos at transfer)” value with mouse embryos [3] (setting [7]) amounted to 49. For the same compound, the “Early Blastocyst (number of embryos at transfer)” value in the data set with mouse embryos [3] (1 μM, 81 embryos transferred, blastocoele cavity <49% of the embryo) is reported as 8. Further, the “Late Blastocyst (number of embryos at transfer)” value in the data set with mouse embryos [3] (1 μM, 81 embryos transferred, blastocoele cavity ≧50% of the embryo) was 22. In the data set on mouse embryos [3] (experimental and control embryos), the “embryos at the morula stage at the time of transfer” value is recorded as “approximately 70%”. The “Pup weight (mean ± S.D.)” value in the data set with mouse embryos [4] (14 days after transfer (16.5 days of pregnancy), control 0.788 ± 0.151) was found to be 0.772 ± 0.124 gm. In the data set on mouse embryos [4] (14 days after transfer of 415 embryos to 31 carriers, control 115), the “Total number of live pups” value worked out at 149. Further, the “Placental weight (mean ± S.D.)” value in the data set with mouse embryos [4] (14 days after transfer, control 0.166 ± 0.037) amounted to 0.166 ± 0.003 gm. In the data set with mouse embryos [4] (14 days after transfer, control 28%), the “live birth rate (live pups per embryo transferred)” value worked out at 36%. The “implantation rate (sacs with or without live pups per embryo transferred)” value with mouse embryos [4] (14 days after transfer, control 46%) was 59%. For the same compound, the “gross anomalies of pups” value in the data set on mouse embryos [4] (embryos exposed during the pre-implantation period, live pups examined) is reported as “no gross anomalies; also recorded: no digit reduction or other anomalies”. Further, in [5], the 3H-Iloprost specifically bound is “approximately 3.04 fmol”. Also, the “embryonic and fetal development” value with rabbits is listed as “not affected”; in the data set on rats it was “digit reduction”; in the data set with monkeys, “not affected”. In data set [6] (5 days culture, control 11/26), the “blastocysts formed / embryos” value is on record as “(18/26)”. For the same compound, the Blastocyst formation rate in [6] (5 days culture, control 42%) is given as 69%. The “ICM (coding A = 3, B = 2, C = 1)” value in [6] (inner cell mass, control 0.50) is reported as 1.42; with human frozen blastocysts (Frozen blastocyst, 18 hours, control 0.72) it was 0.86. Moreover, the “Size (score 1-6)” value in [6] (morula or degenerated = 0, control 1.42) is recorded as 3.04; with human frozen blastocysts (Frozen blastocyst, 18 hours, control 1.45), 1.47. Further, the “TRO (coding A = 3, B = 2, C = 1)” value in [6] (trophectoderm, control 0.46) amounted to 1.31; in the data set with human frozen blastocysts (Frozen blastocyst, 18 hours, control 0.68), 0.78. Further, the “effect on complete hatching” value is reported as “same rates of complete hatching as did 0-96 hours exposure” in the data set on mouse embryos [1] (exposure 0-72 hours after harvest); “ensured enhanced hatching” with mouse embryos [1] (exposure 24-42 hours (eight-cell embryos to morulae)); “same rates of complete hatching as did 0-96 hours exposure” with mouse embryos [1] (exposure 24-72 hours after harvest); “ensured enhanced hatching” with mouse embryos [1] (exposure 42-72 hours (morulae to early blastocysts)); “did not enhance hatching” in the data set with mouse embryos [1] (exposure during the first 24 hours of culture (two-cell to eight-cell)). Moreover, the “rate of complete hatching (mean±S.D.)” value in the data set with mouse embryos [1] (1 μM, maximum augmentation, 96 hours, n=3, control 49±14%) was 81±7%. Also, in the data set on mouse embryos [1] (96 hour culture), the “concentration at which effects on complete hatching were statistically significant” value is at least 0.1 µM. Moreover, the EC50 in the data set with mouse embryos [1] (Mus musculus, 96 h, two-cell mouse embryos cultured 96 hours with 1 nM to 10 μM, Hill slope set at 1.0, read-out: ED50 for enhancement of complete hatching) came to 6.7 nM. For the same compound, the “blastocysts / thawed blastocysts” value in the data set with human frozen blastocysts (Frozen blastocyst, 18 hours, control 11/22) is “(11/23)”. In the data set with human frozen blastocysts (re-expansion of blastocoel checked 18 hours after thaw, control 50%), this compound showed a Blastocyst formate rate of 48%.
